Laboratory results as given in patent publication US9636311B2, “N,N′-di-1 naphthylguanidine HCl (NAGH) and N,N′-di-p-nitrophenylguanidine HCl (NAD) treatment for stroke at delayed timepoints” (University of South Florida, priority 2012, dated 2017).

Test system: rats following MCAO
Assay: Iba1 immunostaining of microglia after MCAO
Format: in vivo, rat
Conditions: 30 days after stroke; p>0.05
Protocol: MCAO surgeries were performed as described elsewhere (Vendrame M, Cassady C J, Newcomb J, Butler T, Pennypacker K R, Zigova T, et al. Stroke. 2004; 35:2390-2395). Briefly, rats were anesthetized with isoflurane, and the right common carotid and external carotid arteries were exposed using blunt dissection techniques. The vagus nerve was separated from common carotid artery and the external carotid artery was ligated proximally, and transected near the bifurcation. An embolus 40 mm in length (4.0 siliconized monofilament) was inserted into the external carotid artery and fed distally into the origin of the middle cerebral artery (˜25 mm from insertion) through the internal carotid artery. Blood samples were taken and analyzed using an i-STAT handheld analyzer for hemoglobin, hematocrit, ionized calcium, glucose, sodium, potassium, pH, pCO2, HCO3, TCO2, base excess, pO2, and O2. Cerebral blood flow was recorded using a Laser Doppler Monitor (Moor Instruments) to verify occlusion. […]
Anti-Iba1 (1:500; Wako 019-19741) immunocytochemistry was used for the specific identification of microglia. […] Iba-1 positive cells were quantified (n=12) as previously detailed by Smirkin et al. (Smirkin, Matsumoto et al. 2010) with little modification. […] Total number of Iba-1 positive cells were counted manually by two observer using ImagePro plus software.

## Cl.N=C(Nc1cccc2ccccc12)Nc1cccc2ccccc12 [NAGH, N,N′-di-1-Naphthylguanidine hydrochloride]
  Activated microglia (Iba1 positive cells) in peri-infarct and ischemic core vs DMSO: not statistically significant
